In ChEMBL document CHEMBL5137134, “Developing the Natural Prenylflavone Artocarpin from Artocarpus hirsutus as a Potential Lead Targeting Pathogenic, Multidrug-Resistant Staphylococcus aureus, Persisters and Biofilms with No Detectable Resistance” (J Nat Prod, 2022):
In brackets after ≈: the same amount, converted by molar mass. Activity calls are given as the source filed them. The rule behind the calls is not given here. Peptide text beside a SMILES is read from it.

Tests used:
[1] = system: Staphylococcus aureus; test: microbe, parasite or virus in culture; conditions: ATCC 29213
Description: Antibacterial activity against Staphylococcus aureus ATCC 29213 assessed as reduction in bacterial growth incubated for 16 to 18 hrs by broth microdilution method

[2] = system: Staphylococcus aureus; test: Synergistic antibacterial activity against Staphylococcus aureus ATCC 29213 assessed as reduction in bacterial growth incubated for 24 hrs in presence of artocarpin by checkerboard method; format: functional
[3] = system: Staphylococcus aureus; test: Bactericidal activity against Staphylococcus aureus ATCC 29213 assessed as increase in extracellular ATP level at 2.5 times MIC after 1 hr by ATP bioluminescence assay; format: functional, organism-based
[4] = system: Staphylococcus aureus; test: Bactericidal activity against Staphylococcus aureus ATCC 29213 assessed as decrease in intracellular ATP level at 2.5 times MIC after 1 hr by ATP bioluminescence assay; format: functional, organism-based
[5] = system: Escherichia coli; test: Antibacterial activity against Escherichia coli ATCC 25922 assessed as reduction in bacterial growth incubated for 16 to 18 hrs by broth microdilution method; format: functional; conditions: time 16-18 hrs
[6] = system: Acinetobacter baumannii; test: Antibacterial activity against Acinetobacter baumannii BAA 1605 assessed as reduction in bacterial growth incubated for 16 to 18 hrs by broth microdilution method; format: functional; conditions: time 16-18 hrs
[7] = system: Staphylococcus aureus; test: Antibacterial activity against Staphylococcus aureus ATCC 29213 infected in Swiss mouse skin infection model assessed as reduction in skin bacterial load at 2 % dose administered twice daily for 4 days; format: functional; conditions: time 4 day
[8] = system: Staphylococcus aureus; test: Antibacterial activity against Staphylococcus aureus ATCC 29213 infected in mouse J774A.1 cells assessed as reduction in intracellular bacterial cells at 5 times MIC incubated for 24 hrs followed by re-plating on TSA plate and measured after 18 to 24 hrs; format: functional
[9] = Induction of resistance in Staphylococcus aureus ATCC 29213 assessed as increase in MIC treated over 35 serial passages by resistant development assay; format: functional
[10] = system: Klebsiella pneumoniae; test: Antibacterial activity against Klebsiella pneumoniae BAA 1705 assessed as reduction in bacterial growth incubated for 16 to 18 hrs by broth microdilution method; format: functional; conditions: time 16-18 hrs
[11] = system: Pseudomonas aeruginosa; test: Antibacterial activity against Pseudomonas aeruginosa ATCC 27853 assessed as reduction in bacterial growth incubated for 16 to 18 hrs by broth microdilution method; format: functional; conditions: time 16-18 hrs
[12] = system: Staphylococcus aureus; test: Antibiofilm activity against Staphylococcus aureus ATCC 29213 assessed as reduction in preformed bacterial biofilm mass at 1 time MIC incubated for 24 hrs by crystal violet staining based microtiter plate reader assay; format: functional; parameters: scale not given: the % may be the effect or the level left
[13] = system: Staphylococcus aureus; test: Post antibiotic effect against Staphylococcus aureus ATCC 29213 at 1 time MIC incubated for 1 hr followed by replacement with drug free medium and measured every 1 hr (reference value: 0 hr); format: functional
[14] = system: Enterococcus; test: Antibacterial activity against Enterococcus NR 31903 assessed as reduction in bacterial growth incubated for 16 to 18 hrs by broth microdilution method; format: functional; conditions: time 16-18 hrs
[15] = system: Staphylococcus aureus; test: Post antibiotic effect against Staphylococcus aureus ATCC 29213 at 10 times MIC incubated for 1 hr followed by replacement with drug free medium and measured every 1 hr (reference value: 0 hr); format: functional
[16] = system: Staphylococcus aureus; test: Post antibiotic effect against Staphylococcus aureus ATCC 29213 assessed as time required for 1 log10 increase in CFU at 10 times MIC incubated for 1 hr followed by replacement with drug free medium and measured every 1 hr (reference value: 2 hrs); format: functional
[17] = system: Staphylococcus aureus; test: Post antibiotic effect against Staphylococcus aureus ATCC 29213 assessed as time required for 1 log10 increase in CFU at 1 time MIC incubated for 1 hr followed by replacement with drug free medium and measured every 1 hr (reference value: 2 hrs); format: functional
[18] = system: Staphylococcus aureus; test: Antibacterial activity against Staphylococcus aureus ATCC 29213 at 1 time MIC after 24 hrs by time kill assay; format: functional
[19] = system: Escherichia coli; test: Antibacterial activity against Escherichia coli ATCC 25922 assessed as reduction in bacterial growth incubated for 16 to 18 hrs in presence of PMBN by broth microdilution method; format: functional; conditions: time 16-18 hrs
[20] = system: Acinetobacter baumannii; test: Antibacterial activity against Acinetobacter baumannii BAA 1605 assessed as reduction in bacterial growth incubated for 16 to 18 hrs in presence of PMBN by broth microdilution method; format: functional; conditions: time 16-18 hrs

In the case of `CCCCCCCCCC(=O)N[C@@H](Cc1c[nH]c2ccccc12)C(=O)N[C@H](CC(N)=O)C(=O)N[C@@H](CC(=O)O)C(=O)N[C@@H]1C(=O)NCC(=O)N[C@@H](CCCN)C(=O)N[C@@H](CC(=O)O)C(=O)N[C@H](C)C(=O)N[C@@H](CC(=O)O)C(=O)NCC(=O)N[C@H](CO)C(=O)N[C@@H]([C@H](C)CC(=O)O)C(=O)N[C@@H](CC(=O)c2ccccc2N)C(=O)O[C@@H]1C`, the MIC [1] is reported as 1 µg/mL (≈ 0.617 µM) and the MIC [2] is reported as 0.5 µg/mL.
With `CC[C@H](C)[C@H](NC(=O)CN)C(=O)NCC(=O)N[C@@H](C)C(=O)N[C@H](C(=O)N[C@@H](CC(C)C)C(=O)N[C@@H](CCCCN)C(=O)N[C@H](C(=O)N[C@@H](CC(C)C)C(=O)N[C@H](C(=O)N[C@H](C(=O)NCC(=O)N[C@@H](CC(C)C)C(=O)N1CCC[C@H]1C(=O)N[C@@H](C)C(=O)N[C@@H](CC(C)C)C(=O)N[C@H](C(=O)N[C@@H](CO)C(=O)N[C@@H](Cc1c[nH]c2ccccc12)C(=O)N[C@H](C(=O)N[C@@H](CCCCN)C(=O)N[C@@H](CCCNC(=N)N)C(=O)N[C@@H](CCCCN)C(=O)N[C@@H](CCCNC(=N)N)C(=O)N[C@@H](CCC(N)=O)C(=O)N[C@@H](CCC(N)=O)C(N)=O)[C@@H](C)CC)[C@@H](C)CC)[C@@H](C)O)[C@@H](C)O)C(C)C)C(C)C` the Activity [3] was “Active” and the Activity [4] was “Active”.
With `CC[C@H](C)CCCCC(=O)N[C@@H](CCN)C(=O)N[C@H](C(=O)N[C@@H](CCN)C(=O)N[C@H]1CCNC(=O)[C@H]([C@@H](C)O)NC(=O)[C@H](CCN)NC(=O)[C@H](CCN)NC(=O)[C@H](CC(C)C)NC(=O)[C@@H](Cc2ccccc2)NC(=O)[C@H](CCN)NC1=O)[C@@H](C)O` (HELM PEPTIDE1{[CC[C@H](C)CCCCC(=O)[*:2]].[Dab].T.[Dab].[Dab].[Dab].[dF].L.[Dab].[Dab].T}$PEPTIDE1,PEPTIDE1,5:R3-11:R2$$$V2.0) the MIC [5] was over 64 µg/mL and the MIC [6] was over 64 µg/mL.
`CC(C)(O/N=C(\C(=O)N[C@@H]1C(=O)N2C(C(=O)[O-])=C(C[n+]3ccccc3)CS[C@H]12)c1csc(N)n1)C(=O)O` [CEFTAZIDIME] gave an MIC [1] of 16 µg/mL (≈ 29.3 µM) and an MIC [2] of 16 µg/mL.
In the case of `CC(=O)O[C@H]1C[C@@]2(C)[C@@H](C[C@@H](O)[C@H]3[C@@]4(C)CC[C@@H](O)[C@@H](C)[C@@H]4CC[C@@]32C)/C1=C(\CCC=C(C)C)C(=O)O` [FUSIDIC ACID], the Activity [7] is reported as 1.8 log10CFU/g.
For `C[C@H]1COc2c(N3CCN(C)CC3)c(F)cc3c(=O)c(C(=O)O)cn1c23.C[C@H]1COc2c(N3CCN(C)CC3)c(F)cc3c(=O)c(C(=O)O)cn1c23.O` [LEVOFLOXACIN], the Activity [8] was 0.45 log10CFU/ml, the MIC [9] was 32 µg/mL and the MIC [10] was 64 µg/mL. For the same compound, the MIC [11] was 0.5 µg/mL, the Activity [12] was 15% and the MIC [1] was 0.125 µg/mL. For the same compound, the PAE [13] was 0.5 h, the MIC [14] was over 64 µg/mL and the PAE [15] was 1.5 h. For the same compound, the Time [16] was 3.5 h, the Time [17] was 2.5 h and the MIC [2] was 0.25 µg/mL.
`CC(=O)NC[C@H]1CN(c2ccc(N3CCOCC3)c(F)c2)C(=O)O1` [LINEZOLID] showed an Activity [18] of 1.6 log10CFU/ml and an MIC [2] of 1 µg/mL.
For `C[C@@H](O)[C@H]1C(=O)N2C(C(=O)O)=C(S[C@@H]3CN[C@H](C(=O)N(C)C)C3)[C@H](C)[C@H]12` [MEROPENEM], the MIC [1] was 1 µg/mL (≈ 2.61 µM) and the MIC [2] was 2 µg/mL.
Work on `CN(C)c1ccc(O)c2c1C[C@H]1C[C@H]3[C@H](N(C)C)C(O)=C(C(N)=O)C(=O)[C@@]3(O)C(O)=C1C2=O` [MINOCYCLINE] yielded an MIC [1] of 0.25 µg/mL (≈ 0.546 µM) and an MIC [2] of 0.125 µg/mL.
`CO[C@H]1/C=C/O[C@@]2(C)Oc3c(C)c(O)c4c(O)c(c(/C=N/N5CCN(C)CC5)c(O)c4c3C2=O)NC(=O)/C(C)=C\C=C\[C@H](C)[C@H](O)[C@@H](C)[C@@H](O)[C@@H](C)[C@H](OC(C)=O)[C@@H]1C` [RIFAMPIN] showed an MIC [5] of 8 µg/mL (≈ 9.72 µM), an MIC [19] of 0.06 µg/mL and an MIC [1] of 0.0078 µg/mL (≈ 0.00948 µM). For the same compound, the MIC [20] was 0.03 µg/mL, the MIC [6] was 2 µg/mL (≈ 2.43 µM) and the MIC [2] was 0.0078 µg/mL.
Work on `CN[C@H](CC(C)C)C(=O)N[C@H]1C(=O)N[C@@H](CC(N)=O)C(=O)N[C@H]2C(=O)N[C@H]3C(=O)N[C@H](C(=O)N[C@H](C(=O)O)c4cc(O)cc(O)c4-c4cc3ccc4O)[C@H](O)c3ccc(c(Cl)c3)Oc3cc2cc(c3O[C@@H]2O[C@H](CO)[C@@H](O)[C@H](O)[C@H]2O[C@H]2C[C@](C)(N)[C@H](O)[C@H](C)O2)Oc2ccc(cc2Cl)[C@H]1O` [VANCOMYCIN] yielded an MIC [5] of 512 µg/mL (≈ 353 µM), an MIC [19] of 128 µg/mL and an Activity [12] of 4%. For the same compound, the PAE [13] was 1 h, the MIC [20] was 64 µg/mL and the PAE [15] was 1.5 h. It also gave an MIC [6] of 256 µg/mL (≈ 177 µM), a Time [16] of 3.5 h and a Time [17] of 3 h.
In the case of GENTAMICIN, the MIC [2] is reported as 0.06 µg/mL.
